Reference: ChEMBL document CHEMBL1153015, “A new type of five-membered heterocyclic inhibitors of basic metallocarboxypeptidases” (Eur J Med Chem, 2009)

What was measured:
Carboxypeptidase B [1] = molecular target: T1, Carboxypeptidase B (Helicoverpa zea, UniProt Q3T905); experiment: Inhibition of corn earworm recombinant carboxypeptidase B expressed in Pichia pastoris system
T1 sequence (Q3T905 whole entry): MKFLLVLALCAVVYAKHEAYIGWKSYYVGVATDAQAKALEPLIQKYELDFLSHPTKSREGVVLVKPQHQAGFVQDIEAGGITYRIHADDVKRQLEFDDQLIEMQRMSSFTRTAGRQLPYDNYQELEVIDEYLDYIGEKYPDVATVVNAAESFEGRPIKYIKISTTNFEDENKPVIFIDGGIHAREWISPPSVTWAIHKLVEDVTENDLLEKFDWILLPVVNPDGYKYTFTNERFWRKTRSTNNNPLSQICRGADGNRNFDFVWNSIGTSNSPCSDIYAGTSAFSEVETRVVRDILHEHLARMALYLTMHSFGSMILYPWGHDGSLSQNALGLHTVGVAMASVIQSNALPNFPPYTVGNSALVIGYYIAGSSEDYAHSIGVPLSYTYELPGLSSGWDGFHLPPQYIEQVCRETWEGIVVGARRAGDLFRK

Carboxypeptidase A1 = molecular target: T2, Carboxypeptidase A1 (Bos taurus, UniProt P00730); experiment: Inhibition of bovine carboxypeptidase A1
T2 sequence (P00730 whole entry): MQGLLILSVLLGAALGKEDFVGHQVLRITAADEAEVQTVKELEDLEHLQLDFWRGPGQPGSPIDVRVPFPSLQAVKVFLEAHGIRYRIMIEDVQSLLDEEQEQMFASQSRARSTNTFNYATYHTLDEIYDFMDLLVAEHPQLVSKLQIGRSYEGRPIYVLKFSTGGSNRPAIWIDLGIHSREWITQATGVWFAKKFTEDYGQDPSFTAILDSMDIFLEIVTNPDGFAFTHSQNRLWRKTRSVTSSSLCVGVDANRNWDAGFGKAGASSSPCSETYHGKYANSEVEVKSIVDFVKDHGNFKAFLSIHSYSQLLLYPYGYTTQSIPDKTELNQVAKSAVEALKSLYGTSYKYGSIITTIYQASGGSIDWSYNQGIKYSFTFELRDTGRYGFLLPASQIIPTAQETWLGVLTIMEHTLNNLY

Carboxypeptidase B [2] = molecular target: T3, Carboxypeptidase B (Homo sapiens, UniProt P15086); experiment: Inhibition of human recombinant carboxypeptidase B expressed in Pichia pastoris system
T3 sequence (P15086 whole entry): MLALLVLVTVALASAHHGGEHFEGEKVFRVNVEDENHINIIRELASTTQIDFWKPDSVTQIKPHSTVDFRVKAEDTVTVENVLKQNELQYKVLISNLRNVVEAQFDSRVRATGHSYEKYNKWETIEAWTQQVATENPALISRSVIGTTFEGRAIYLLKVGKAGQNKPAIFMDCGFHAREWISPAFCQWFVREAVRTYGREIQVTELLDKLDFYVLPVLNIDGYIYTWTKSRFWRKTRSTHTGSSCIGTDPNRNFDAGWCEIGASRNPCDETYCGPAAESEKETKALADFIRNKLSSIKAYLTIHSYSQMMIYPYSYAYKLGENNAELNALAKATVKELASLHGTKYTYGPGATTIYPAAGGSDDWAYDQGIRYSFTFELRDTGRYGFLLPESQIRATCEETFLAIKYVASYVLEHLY

[3] = Selectivity ratio, Ki for bovine carboxypeptidase A1 to Ki for human recombinant carboxypeptidase B

Row | Structure (SMILES) | Ki (Carboxypeptidase B [1]) | Ki (Carboxypeptidase A1) [µM] | Ki (Carboxypeptidase B [2]) [µM] | Ki (Carboxypeptidase B [1]; read-out: Ki) [µM] | Ratio Ki [3]
1 | O=S(=O)(NCc1ccccc1)c1ccc(S(=O)(=O)N(Cc2cccs2)CC2CCCO2)cc1 (configuration not stated) | Not Active | 19.4 | 23 |  | 
2 | COC(=O)CSc1nnc(-c2ccccc2O)n1Cc1ccccc1 |  | 159 | 4.9 | 41.6 | 30
3 | O=C(CSc1nnc(-c2ccc(O)cc2)n1Cc1ccco1)c1cccs1 | Not Active | 74.5 | 9.1 |  | 
4 | O=C(O)CC(Cc1ccccc1)C(=O)O (racemic) |  | 0.5 | 10 | 11.9 | 
5 | O=C(CSc1nnc(-c2ccccc2O)o1)c1ccc(Cl)cc1 |  | 2.1 | 7.5 | 1 | 20
6 | COc1ccccc1-c1nnc(SCC(=O)OC(C)C)n1Cc1ccccc1 |  | 160 | 7.4 | 36.1 | 
7 | Cc1cccc(CCc2nnc(SCC(=O)O)n2Cc2ccccc2)c1 |  | 217 | 196 | 57 | 
8 | CCOC(=O)C(Sc1nnc(COc2ccc(CC)cc2)n1CC)C(C)C (configuration not stated) |  | 22 | 10.8 | 11.9 | 
9 | Cc1ccc(S(=O)(=O)N2CCN(C(=O)CNCc3ccncc3)CC2)cc1 |  | 250 | 364 | 18 | 
10 | O=C(CSc1nnc(-c2ccccc2F)o1)OCc1ccccc1 |  | 32 | 67.2 | 33.4 | 
11 | Cc1cc(S(=O)(=O)N(Cc2ccco2)Cc2ccccc2Cl)ccc1-n1cnnn1 |  | 159 | 16.6 | 12.6 | 
12 | Cc1ccccc1-c1nnc(SCC(=O)c2ccccc2F)o1 |  | 39.3 | 14.7 | 40 | 
13 | NC(=O)CSc1nnc(-c2cccs2)n1Cc1ccccc1 |  | 155 | 11.6 | 27.2 | 
14 | O=C(C1CC1)N(Cc1ccccc1)c1nc(-c2ccccc2)cs1 |  | 800 | 4.5 | 1.2 | 160
15 | O=C(CSc1nnc(-c2ccco2)n1Cc1ccccc1)c1ccc(F)cc1 | Not Active | 236 | 74.5 |  | 
16 | O=S(=O)(NCc1cccs1)c1ccc(-c2nnc(SCc3ccccc3Cl)o2)cc1 |  | 67.3 | 40 | 1.4 | 
17 | COc1cccc(CN(Cc2cccnc2)S(=O)(=O)c2ccc(-n3cnnn3)c(C)c2)c1 |  | 148 | 23.9 | 28.4 | 
18 | COc1ccc(C(=O)Cn2nnc(-c3ccccc3NC(=O)C3CC3)n2)cc1 |  | 41.3 | 292 | 31 | 
19 | O=C(O)c1cccc(-n2nnnc2SCC(=O)c2ccccc2F)c1 |  | 550 | 33.6 | 53.8 | 

More lines, now with the values ahead:

Row | Ki (Carboxypeptidase B [1]) | Ki (Carboxypeptidase A1) [µM] | Ki (Carboxypeptidase B [2]) [µM] | Ki (Carboxypeptidase B [1]; read-out: Ki) [µM] | Ratio Ki [3] | Structure (SMILES)
20 |  | 381 | 20.8 | 30.2 |  | COc1ccccc1Cn1c(SCC(=O)N2CCC(C)CC2)nnc1-c1ccncc1
21 |  | 22.5 | 1.2 | 3.6 |  | COc1cccc(CSc2nnc(Cc3csc(Nc4cccc(Cl)c4)n3)o2)c1
22 |  | 86.3 | 15 | 9 |  | Cc1ccc(C)c2c1[nH]c1nc(SCC(=O)c3ccc(F)cc3)nnc12
23 |  | 138 | 25.9 | 38 |  | Cc1ccccc1CCNS(=O)(=O)c1ccc(-n2cnnn2)c(C)c1
24 |  | 320 | 20.7 | 19.6 |  | O=C(O)c1ccccc1C(=O)N1CCC(C(=O)c2ccccc2)CC1
25 |  | 36.7 | 11.7 | 12 |  | Cc1ccc(C(=O)CSc2nnc(COc3ccc(Cl)cc3)o2)cc1
26 |  |  | 1.1 |  |  | N=C(N)NCCSC(CC(=O)O)C(=O)O (racemic)
27 |  | 128 | 25.1 | 19.7 |  | CCCN(C(=O)Cc1ccccc1OC)c1nnc(-c2ccc(OC)cc2)s1
